# Source: patent publication US12491182B2, “Polymorphs of triazole antifungal compound PC945” (Pulmocide Limited, priority 2019, dated 2025)
# Where two headings read alike, the source gives them in different places. Marks after values point to notes of the source that are not given here.
# Experiments:
# [1] = Equilibration of Forms 1 and 2, singularly and as mixtures, in MEK and THF alone and with 5% water; assay type: physicochemical; conditions: 5-10 °C, both equilibration temperatures
# Source text: The influence of the initial polymorphic composition on the fate of samples was investigated by equilibration of the either the single polymorphs or an equal mixture of both in anhydrous MEK and THF as well as in the same solvents doped with 5% water.
# The results obtained (Table 13) reveal that in anhydrous media the two polymorphs retain their structural integrity, if present singularly (Table 13, Entries 1, 2, 4 and 5). […] (Table 13, Entry 4) which may be attributable to the presence of traces of moisture in a highly hygroscopic solvent.
# The results observed when 5% water was admixed to the two solvents indicate that the predominance of the two forms reversed under these conditions, taking kinetic factors into account. In aqueous MEK (5% water) the single polymorphs were again unchanged for the duration of the experiment (Table 13, Entries 7 and 8). In contrast, the binary polymorphic mixture converted into Form 1 in this medium (Table 13, Entry 9). In aqueous THF (5% water) the dominance of Form 1 as the most preferred polymorph was especially evident. In this environment the suspension of Form 1 remained unchanged (Table 13, Entry 10), consistent with the outcome observed for aq MEK under the same conditions.
# However, in THF doped with 5% water, both the suspension comprising the binary mixture, as well as that composed of the Form 2 polymorph alone, were transformed into suspensions containing only Form 1 (Table 13, Entries 11 and 12).
# Candida auris isolates = conditions: isolates collected globally; cited from earlier work
# Aspergillus fumigatus [2] = conditions: topical Compound I in combination with a known systemic triazole agent; lungs of neutropenic, immunocompromised mice; cited from earlier work
# Aspergillus fumigatus [3] = conditions: topical Compound I in combination with a known systemic triazole agent; in vitro human alveolus bilayer model; cited from earlier work
# [4] = Solubility of Compound I in MEK/water mixtures; assay type: physicochemical; conditions: 25 °C, organic solvent or mixture, thermodynamic from solid
# Procedure: (Table 12). It was observed that Form 2 integrity was maintained for at least 24 hours at the lower temperature until the water content exceeded 6%, despite an increase in solubility of Compound I from 19 to 30 mg/ml (data not shown).
# [5] = biological target: T1, Aspergillus fumigatus sterol 14α-demethylase CYP51B (Aspergillus fumigatus, UniProt E9QY26); conditions: cited from earlier work
# T1 sequence (E9QY26 1-524): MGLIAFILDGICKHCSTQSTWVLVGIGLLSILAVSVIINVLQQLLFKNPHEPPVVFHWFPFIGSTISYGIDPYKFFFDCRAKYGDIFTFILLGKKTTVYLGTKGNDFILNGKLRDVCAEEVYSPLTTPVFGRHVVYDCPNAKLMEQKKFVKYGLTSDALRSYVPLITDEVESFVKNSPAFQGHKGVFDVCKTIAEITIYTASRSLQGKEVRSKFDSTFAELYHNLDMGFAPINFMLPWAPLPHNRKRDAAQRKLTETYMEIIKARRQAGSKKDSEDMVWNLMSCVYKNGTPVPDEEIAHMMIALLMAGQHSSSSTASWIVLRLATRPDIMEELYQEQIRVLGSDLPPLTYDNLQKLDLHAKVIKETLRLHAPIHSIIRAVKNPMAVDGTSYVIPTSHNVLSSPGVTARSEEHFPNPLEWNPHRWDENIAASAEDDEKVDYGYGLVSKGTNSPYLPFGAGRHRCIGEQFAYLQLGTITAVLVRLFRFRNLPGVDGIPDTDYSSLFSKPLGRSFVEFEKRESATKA
# [6] = Solubility of Compound I in water; assay type: physicochemical
# [7] = biological target: T2, Aspergillus fumigatus sterol 14α-demethylase CYP51A (Aspergillus fumigatus, UniProt Q4WNT5); conditions: cited from earlier work
# T2 sequence (Q4WNT5 1-515): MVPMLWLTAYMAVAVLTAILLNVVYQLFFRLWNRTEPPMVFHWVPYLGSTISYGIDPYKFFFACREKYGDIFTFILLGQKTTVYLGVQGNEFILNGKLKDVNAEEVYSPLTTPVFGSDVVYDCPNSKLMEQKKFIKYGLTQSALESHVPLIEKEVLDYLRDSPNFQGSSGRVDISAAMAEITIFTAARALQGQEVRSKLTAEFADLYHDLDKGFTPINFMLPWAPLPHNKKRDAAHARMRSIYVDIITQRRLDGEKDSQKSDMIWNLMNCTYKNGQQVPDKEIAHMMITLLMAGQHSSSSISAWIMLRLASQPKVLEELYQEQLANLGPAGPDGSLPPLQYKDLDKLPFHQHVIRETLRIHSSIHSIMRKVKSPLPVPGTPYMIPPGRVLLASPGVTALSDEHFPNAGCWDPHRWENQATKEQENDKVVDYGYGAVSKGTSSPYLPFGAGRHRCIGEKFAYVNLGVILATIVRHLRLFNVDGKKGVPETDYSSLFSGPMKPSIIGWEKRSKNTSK
# Aspergillus fumigatus [8] = conditions: intranasal dosing, immunocompromised mice, repeat dosing; cited from earlier work
# [9] = Cross-seeding experiments of Forms 1 and 2 at 5, 25 and 50 °C, XRPD; assay type: physicochemical; conditions: 96 hr
# Source text: (§1) X-Ray powder diffraction patterns were collected on a PANalytical diffractometer using Cu Kα radiation (45 kV, 40 mA), θ-θ goniometer, focusing mirror, divergence slit (½″), soller slits at both incident and divergent beam (4 mm) and a PIXcel detector. The software used for data collection was X′Pert Data Collector, version 2.2f and the data was presented using X′Pert Data Viewer, version 1.2d. XRPD patterns were acquired under ambient conditions via a transmission foil sample stage (polyimide—Kapton, 12.7 μm thickness film) under ambient conditions using a PANalytical X′Pert PRO. The data collection range was 2.994-35°2θ with a continuous scan speed of 0.202 s^−1.
# A mixture of Forms 1 and 2 (50% w/w) was prepared and a sample of the mixture (20 mg) was then suspended in a solvent system (50 vol, 1.0 mL) and shaken at different temperatures for 96 hr. The solids were filtered, air dried and analysed by XRPD. The results obtained (Table 8) reveal that, in all but one of the systems investigated (Entries 10-12), the mixture of polymorphic forms had turned over into Form 2 when maintained at both RT and 50° C. The transformation in propyl acetate was seen to be especially facile as Form 2 was also isolated from the suspension which had been maintained at 5° C. (Entry 1).
# [10] = Maturation of 1:1 suspensions of Forms 1 and 2 at varying temperatures, XRPD analysis; assay type: physicochemical
# Source text: It has been determined that the crystalline states, referred to herein as Form 1 and Form 2, constitute an enantiotropic polymorphic pair. This property arises from a temperature dependency of their relative thermodynamic stabilities, whereby one of the polymorphs is the most thermodynamically stable manifestation of the material up to a characteristic (empirically determined) temperature; above which their order of stability is inverted. In the present instance suspensions comprising equal amounts of the two polymorphs were matured, in one of six different solvents, at 50° C., 70° C. and 135° C. (Table 6). In all experiments conducted at both 50° C. and 70° C. the 1:1 mixtures converted into suspensions containing only the Form 2 polymorph. In contrast, all of the mixtures maintained at a temperature of 135° C. were transformed into Form 1.
# as §1
# A mixture of equal amounts Forms 1 and 2 (100 mg) was charged to crystallisation tubes followed by the selected solvent. The suspensions were heated to the temperatures indicated (Table 6) for 72 hr, during which time samples were taken at 24 hr intervals Solids were isolated at the maturation temperature by filtration and then dried in vacuo at 45° C. for 20 hr. In two cases (Table 6, Entries 1 and 2) suspensions were retained at 135° C. which comprised Form I from the 24 hr time point to the conclusion of the experiment. In the remaining cases (Table 6, Entries 4-6) solutions had formed at 72 hr and solids were recovered by slight cooling, all of which were determined to be Form 1. Those maturated at lower temperatures all gave Form 2 within 24 hr.
smiles,measurement,setting,value
"[2H]c1c([2H])c(NC(=O)c2ccc(N3CCN(c4ccc(OC[C@@H]5CO[C@@](Cn6cncn6)(c6ccc(F)cc6F)C5)c(C)c4)CC3)cc2)c([2H])c([2H])c1F [Compound 2, 4-(4-(4-(((3R,5R)-5-((1H-1,2,4-triazol-1-yl)methyl)-5-(2,4-difluorophenyl)tetrahydrofuran-3-yl)methoxy)-3-methylphenyl)piperazin-1-yl)-N-(4-fluorophenyl-2,3,5,6-d4)benzamide, reference compound]",Form by XRPD Post Equilibration,[1]; MEK (anhydrous),2
same,Form by XRPD Post Equilibration,[1]; MEK/5% Water,2
same,Form by XRPD Post Equilibration,"[1]; THF (anhydrous), Form 1 input: some evidence of Form 2 at 10 °C",2
same,Form by XRPD Post Equilibration,[1]; THF/5% Water,1
"Cc1cc(N2CCN(c3ccc(C(=O)Nc4ccc(F)cc4)cc3)CC2)ccc1OC[C@@H]1CO[C@@](Cn2cncn2)(c2ccc(F)cc2F)C1 [Compound I, 4-(4-(4-(((3R,5R)-5-((1H-1,2,4-triazol-1-yl)methyl)-5-(2,4-difluorophenyl)tetrahydrofuran-3-yl)methoxy)-3-methylphenyl)piperazin-1-yl)-N-(4-fluorophenyl)benzamide]","inhibition of Candida auris isolates, potency compared with azoles",Candida auris isolates,"more potent inhibitor than posaconazole, voriconazole and fluconazole"
same,anti-fungal effect of combination,Aspergillus fumigatus [2],synergistic anti-fungal effects
same,anti-fungal effect of combination,Aspergillus fumigatus [3],synergistic anti-fungal effects
same,solubility,[4]; MEK with 8% water by volume,23 mg/mL
same,solubility,"[4]; MEK with water content rising up to 6% by volume, 25 °C (data not shown)",19 to 30 mg/mL
same,inhibition of sterol 14α-demethylase CYP51B,[5],potent inhibitor
same,solubility in water,[6],extremely low solubility
same,inhibition of sterol 14α-demethylase CYP51A,[7],potent inhibitor
same,anti-fungal effects by biomarker analysis,Aspergillus fumigatus [8],accumulated upon repeat dosing and were persistent
Cc1cc(N2CCN(c3ccc(C(=O)Nc4ccc(F)cc4)cc3)CC2)ccc1OC[C@@H]1CO[C@@](Cn2cncn2)(c2ccc(F)cc2F)C1 [Forms 1 and 2],Polymorphic Form by XRPD,"[9]; PrOAc, 5 °C",2
same,Polymorphic Form by XRPD,"[9]; PrOAc, 25 °C",2
same,Polymorphic Form by XRPD,"[9]; PrOAc, 50 °C",2
same,Polymorphic Form by XRPD,"[9]; TBME, 25 °C",2
same,Polymorphic Form by XRPD,"[9]; TBME, 50 °C",2
same,Polymorphic Form by XRPD,"[9]; Toluene, 25 °C",2
same,Polymorphic Form by XRPD,"[9]; Toluene, 50 °C",2
same,Form by XRPD Post Equilibration,"[1]; MEK (anhydrous), listed as 1 + 2",2
same,Form by XRPD Post Equilibration,[1]; MEK/5% Water,1
same,Form by XRPD Post Equilibration,"[1]; THF (anhydrous), Form 1 input: some evidence of Form 2 at 10 °C, listed as 1 + 2",2
same,Form by XRPD Post Equilibration,[1]; THF/5% Water,1
same,Polymorph obtained at temp indicated,"[10]; decalin, 50 °C, XRPD after 72 hr",2
same,Polymorph obtained at temp indicated,"[10]; decalin, 70 °C, XRPD after 72 hr",2
same,Polymorph obtained at temp indicated,"[10]; decalin, 135 °C, 72 hr, dissolution occurred, solid obtained on slight cooling",1^b
same,Polymorph obtained at temp indicated,"[10]; diphenyl ether, 50 °C, XRPD after 72 hr",2
same,Polymorph obtained at temp indicated,"[10]; diphenyl ether, 70 °C, XRPD after 72 hr",2
same,Polymorph obtained at temp indicated,"[10]; diphenyl ether, 135 °C, 72 hr, dissolution occurred, solid obtained on slight cooling",1^b
same,enantiotropic transition point (temperature at which stability inverts),"[10]; from maturation of 1:1 mixtures at 50, 70 and 135 °C",70-135 °C
same,Polymorph obtained at temp indicated,"[10]; heptanol, 50 °C, XRPD after 72 hr",2
same,Polymorph obtained at temp indicated,"[10]; heptanol, 70 °C, XRPD after 72 hr",2
same,Polymorph obtained at temp indicated,"[10]; heptanol, 135 °C, 72 hr, dissolution occurred, solid obtained on slight cooling",1^b
same,Polymorph obtained at temp indicated,"[10]; mesitylene, 50 °C, XRPD after 72 hr",2
same,Polymorph obtained at temp indicated,"[10]; mesitylene, 70 °C, XRPD after 72 hr",2
same,Polymorph obtained at temp indicated,"[10]; mesitylene, 135 °C, XRPD after 72 hr",1
same,Polymorph obtained at temp indicated,"[10]; p-cymene, 50 °C, XRPD after 72 hr",2
same,Polymorph obtained at temp indicated,"[10]; p-cymene, 70 °C, XRPD after 72 hr",2
same,Polymorph obtained at temp indicated,"[10]; p-cymene, 135 °C, 72 hr, dissolution occurred, solid obtained on slight cooling",1^b
same,Polymorph obtained at temp indicated,"[10]; xylenes, 50 °C, XRPD after 72 hr",2
same,Polymorph obtained at temp indicated,"[10]; xylenes, 70 °C, XRPD after 72 hr",2
same,Polymorph obtained at temp indicated,"[10]; xylenes, 135 °C, XRPD after 72 hr",1
